Like-named read-outs stand apart in the source and are kept apart here.
Columns and labels:
[1] = system: Pyrenophora teres; experiment: Pyrenophora teres / barley / leaf disc preventative (net blotch); type: in vivo; details: 200 ppm, 5-7 days after application, vs untreated control
Description: Pyrenophora teres/Barley/Leaf Disc Preventative (Net Blotch) Barley leaf segments cv. […] The leaf segments are inoculated with a spore suspension of the fungus 2 days after application. […] P5.

[2] = system: Mycosphaerella graminicola (Septoria tritici); experiment: Mycosphaerella graminicola (Septoria tritici) / liquid culture (Septoria blotch); type: cell-based; details: Zymoseptoria tritici, read-out: control of Mycosphaerella graminicola
[3] = system: Phaeosphaeria nodorum (Septoria nodorum); experiment: Phaeosphaeria nodorum (Septoria nodorum) / wheat / leaf disc preventative (glume blotch); type: in vivo; details: 200 ppm, 5-7 days after application, vs untreated control
Description: Phaeosphaeria Nodorum (Septoria nodorum)/Wheat/Leaf Disc Preventative (Glume Blotch) Wheat leaf segments cv. […] The leaf disks are inoculated with a spore suspension of the fungus 2 days after application. […] P3.

[4] = 20 ppm, liquid culture, growth inhibition photometrically 4-5 days after application, vs untreated control

Row | Compound | inhibition of growth at 20 ppm [2, 4] [%] | also measured
1 | Cc1sc(Nc2cnsc2)nc1C(=O)NC1CCC12CCCC2 (stereo not shown) [Compound P5, 2-(isothiazol-4-ylamino)-5-methyl-N-spiro 3.4 octan-3-yl-thiazole-4-carboxamide] | ≥ 80 | control of Pyrenophora teres [1]: at least 80%
2 | Cc1sc(Nc2cnsc2)nc1C(=O)NCCC(C)C [Compound P3, N-isopentyl-2-(isothiazol-4-ylamino)-5-methyl-thiazole-4-carboxamide] | ≥ 80 | control of Phaeosphaeria nodorum [3]: at least 80%
3 | CCCCNC(=O)c1nc(Nc2cnsc2)sc1C [Compound P1, N-butyl-2-(isothiazol-4-ylamino)-5-methyl-thiazole-4-carboxamide] | ≥ 80 | 
4 | Cc1sc(Nc2cnsc2)nc1C(=O)NC(C)c1ccccc1 (stereo not shown) [Compound P4, 2-(isothiazol-4-ylamino)-5-methyl-N-(1-phenylethyl) thiazole-4-carboxamide] | ≥ 80 | 
5 | Cc1sc(N(C#N)c2cnsc2)nc1C(=O)NC1CCC12CCCC2 (stereo not shown) [Compound P9, 2-cyano(isothiazol-4-yl)amino-5-methyl-N-spiro 3.4 octan-3-yl-thiazole-4-carboxamide] | ≥ 80 | 
6 | Cc1sc(Nc2cnsc2)nc1C(=O)NC1CCC1(C)C (stereo not shown) [Compound P6, N-(2,2-dimethylcyclobutyl)-2-(isothiazol-4-ylamino)-5-methyl-thiazole-4-carboxamide] |  | inhibition of growth at 20 ppm [2]: ≥ 80%
7 | Cc1sc(Nc2cnsc2)nc1C(=O)NCC(C)(C)C [Compound P2, N-(2,2-dimethylpropyl)-2-(isothiazol-4-ylamino)-5-methyl-thiazole-4-carboxamide] | ≥ 80 | 
8 | COCC(=O)N(c1cnsc1)c1nc(C(=O)NC2CCC23CCCC3)c(C)s1 (stereo not shown) [Compound P8, 2-isothiazol-4-yl-(2-methoxyacetyl) amino-5-methyl-N-spiro 3.4 octan-3-yl-thiazole-4-carboxamide] | ≥ 80 | 

Source: patent US20260240158A1, “MICROBIOCIDAL THIAZOLE DERIVATIVES” (SYNGENTA CROP PROTECTION AG, priority 2019, published 2026)
